The conditions of data set [1]: potentiometrically detected; cited from earlier work.
Data set [2] in a line: NMR titration for pKa determination of model peptides. The note with it: 1 mM peptide in 40 mM KCl (H2O + 10 % D2O); for pKa2 (from 31P chemical shift vs pH, inflection point of sigmoidal fit): pH 2 to 11, 278 K, 600 MHz, 8a/8b: mono-protonated phosphoryl oxygen to di-anion, 8c: complete deprotonation of the phosphoryl oxygens. The class given is physicochemical. The procedure: Next, we aimed to evaluate the charge distribution of peptides 8 a–c at physiological pH. […] An elegant technique for the pK a determination is NMR titration since this non‐invasive analytical technique enables accurate measurements at desired temperatures at a given pH. Our experimental set up was inspired by the NMR titration conducted by Gamcsik et al. on phosphoramidic acid and other phosphoramides. ^[23] Samples were prepared at a 1 mM concentration in 40 mM KCl (water + 10 % deuterium oxide) and kept at low temperature to minimize P−N bond hydrolysis for 8 c. The pH of each sample was adjusted before measurement and checked again afterwards. Proton (^1H), phosphorous (^31P) 1D as well as ^1H‐^31P‐heteronuclear multiple bond […] (HMBC) NMR spectra were recorded from pH 2 to pH 11 on a 600 MHz (^1H frequency) spectrometer at 278 K and subsequently used for calculations of pK a values (Figure 2 A, exemplified for 8 a, see Figure S3 for 8 b). In order to do so, the chemical shift of ^31P was plotted against the pH values and resulting curves fitted with sigmoidal functions wherein pK a values were obtained from the inflection points (Figure 2 B). We further evaluated the data by plotting and fitting of the ^1H chemical shifts – ζ‐protons for phosphonate 8 a and ϵ‐protons for phosphate 8 b and phosphoramidate 8 c (Figure S4).
Figure 2 A. NMR titration experiments of peptide 8 a. Conditions: NMR spectra of a solution containing 1 mM peptide in 40 mM KCl (H2O+10 % D2O) were recorded at distinct pH values on a 600 MHz (^1H frequency) spectrometer at 278 K. Shown are the overlay of 1D‐^31P spectra at different pH values and extracted correlation signals between ϵ‐protons and phosphorous from ^1H,^31P‐HMBC experiments. B. Graphical visualization of ^31P NMR measurements for phosphonate 8 a (red), phosphate 8 b (blue) and phosphoramidate 8 c (black).

Data set [3] addresses T1, alkaline phosphatase (ALP) (Bos taurus, UniProt P19111).
T1 construct: purchased Sigma-Aldrich (aliquots provided by Prof. Fiedler)
Description: Enzymatic stability against alkaline phosphatase (released inorganic phosphate, EnzCheck kit). The class given is in vitro ADME. Particulars: 1 mM substrate, 50 mM Tris, 1 mM MgCl2, 1 mM ZnCl2, pH 8.2, 30 °C, 0.05 U ALP, 2 h; photometric read-out of released Pi at 360 nm (SI: 100 μM, pH 7.8, 90 min); blank without enzyme subtracted. Here is the method: With the three peptides 8 a–c in hand, we tested their enzymatic stability against the promiscuous alkaline phosphatase (ALP). The substrates 8 a–c were tested for stability towards ALP under optimized conditions. Briefly, 1 mM substrate was dissolved in 50 mM Tris, 1 mM MgCl2, 1 mM ZnCl2, pH 8.2, at 30 °C and was incubated with 0.05 U ALP for 2 h. and the amount of released inorganic phosphate (Pi) was determined via photometric read‐out. […] Furthermore, treatment of 8 b with ALP yielded in a Pi release, which indicated susceptibility of the phosphate analogue towards phosphatases.
Treatment of peptides 8a-c with alkaline phosphatase (ALP). […]
enzymatically hydrolyzed substrate, calculated by subtraction of detected inorganic phosphate (Pi) in blank reactions (without enzyme) from the reactions with enzyme ad de d . He r e i n , w e observed dephosphorylation for both peptides 8b and 8c, which indicated susceptibility of the phosphate analogue towards phosphatases. […]
Reactions were run for 90 min in total, UV -absorbance was measured every 10 min. The enzymatic hydrolysis yield [E] was determined by substraction of [BG]w/oBL from […]
UV/Vis spectra and absorbance values were determined either on a V -630 spectrophotometer at r.t. or a V-550 UV/Vis spectrophotometer equipped with an ETC-505T temperature controller at 20 °C (both Jasco, Tokyo, Japan). […]

T1 sequence (P19111 20-506 limits assumed): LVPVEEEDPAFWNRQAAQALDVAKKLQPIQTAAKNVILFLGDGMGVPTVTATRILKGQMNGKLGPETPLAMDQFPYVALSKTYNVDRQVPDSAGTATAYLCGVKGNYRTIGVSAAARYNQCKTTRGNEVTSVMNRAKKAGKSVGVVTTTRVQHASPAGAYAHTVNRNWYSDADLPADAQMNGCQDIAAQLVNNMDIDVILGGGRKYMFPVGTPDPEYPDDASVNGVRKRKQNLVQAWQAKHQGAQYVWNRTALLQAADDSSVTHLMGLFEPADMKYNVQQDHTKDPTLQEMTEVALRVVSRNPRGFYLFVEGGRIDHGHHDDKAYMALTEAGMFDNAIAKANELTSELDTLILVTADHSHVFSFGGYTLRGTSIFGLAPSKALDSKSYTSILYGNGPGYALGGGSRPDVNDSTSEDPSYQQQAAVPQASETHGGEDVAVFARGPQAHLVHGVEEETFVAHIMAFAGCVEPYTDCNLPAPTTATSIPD

Regarding `CCCCNP(=O)(O)O` [N‐(n‐butyl)phosphoramidate], in data set [1], the “pKa for the protonation on nitrogen” value is listed as 9.9 and the “pKa for the protonation on one phosphoryl oxygen” value is reported as 2.9.
Turning to `CC(=O)N[C@@H](Cc1ccc(O)cc1)C(=O)N[C@@H](CCCCNP(=O)(O)O)C(=O)NCC(N)=O` [8c, ^AcTyrpLysGly^CONH2], the “pKa2 (from 31P chemical shift vs pH, inflection point of sigmoidal fit)” value in data set [2] was 2.88±0.30. Further, in data set [2] (31P shift vs pH, 278 K), the “pKa3 (deprotonation of the amine)” value came to 9.64±0.07.
For `CC(=O)N[C@@H](Cc1ccc(O)cc1)C(=O)N[C@@H](CCSCCP(=O)(O)O)C(=O)NCC(N)=O` [8a], the “pKa2 (from 31P chemical shift vs pH, inflection point of sigmoidal fit)” value in data set [2] was 7.08±0.03.
As for `CC(=O)N[C@@H](Cc1ccc(O)cc1)C(=O)N[C@@H](CCCCOP(=O)(O)O)C(=O)NCC(N)=O` [8b], in data set [2], the “pKa2 (from 31P chemical shift vs pH, inflection point of sigmoidal fit)” value worked out at 6.54±0.13. For the same compound, the “stability towards ALP (enzymatic hydrolysis, Pi release)” value in data set [3] is “dephosphorylation”.
